Assay results taken from US20210220374A1, “METHODS OF TREATING TE[…]” (Clarus Therapeutics, Inc., priority 2013, published 2021).

Experiment: Contingency table classification of C(t) acceptance range as surrogate for Cavg
Parameters: species or system hypogonadal men
Conditions: for Percent of Subjects: C(t) in range / Percent of Subjects: C(t) too high / Percent of Subjects: C(t) too low / Percent of Subjects: Cavg in range & C(t) in range / Percent of Subjects: Cavg in range & C(t) too high / Percent of Subjects: Cavg in range & C(t) too low / Percent of Subjects: Cavg too high & C(t) too high / Percent of Subjects: Cavg too low & C(t) in range / Percent of Subjects: Cavg too low & C(t) too low / Percent of Subjects: Cavg too high & C(t) in range: Cavg 300-1000 ng/dL; for Percent of subjects: Cavg in Range F & C(t) in Range F (total of too high and too low): Cavg 300-1000
Text: For the contingency table approach, the number and percentage of subjects that fell into each of the following seven categories were enumerated, for each of the candidate time points, and for each candidate target range for Cavg, and for each candidate acceptance range for C(t). • 1. Subjects with Cavg within range and with C(t) within range • 2. Subjects with Cavg below range and with C(t) below range • 3. Subjects with Cavg above range and with C(t) above range • 4. Subjects with Cavg within range but with C(t) below range • 5. Subjects with Cavg within range but with C(t) above range • 6. Subjects with Cavg below range, but with C(t) within range • 7. Subjects with Cavg above range, but with C(t) within range
If one defines a value as being “within range” as positive, and being “outside of range” as negative, then Group 1 is subjects that are “true positives”, Groups 2 and 3 are “true negatives”, groups 4 and 5 are “false negatives”, and groups 6 and 7 are “false positives”. Groups, 1, 2 and 3 represent successful predictions because C(t) is an appropriate surrogate for Cavg; Groups 4, 5, 6 and 7 are prediction failures because C(t) is an inaccurate surrogate for Cavg.
Correlations and contingency table calculations were performed using built-in functions in the Excel module of Microsoft Office 2003 (Redmond, Wash.). Graphs were produced using the built-in charting capabilities of Excel.

[1] = C(1.5), C(t) acceptance 130-1110

Structure (SMILES): CCCCCCCCCCC(=O)O[C@H]1CC[C@H]2[C@@H]3CCC4=CC(=O)CC[C@]4(C)[C@H]3CC[C@]12C [TU, testosterone undecanoate]
- Percent of Subjects: C(t) in range (C(0), C(t) acceptance 80-1000): 87.8%
- Percent of Subjects: C(t) too high (C(0), C(t) acceptance 80-1000): C(t) too high 4.9%
- Percent of Subjects: C(t) too low (C(0), C(t) acceptance 80-1000): 7.3%
- Percent of Subjects: Cavg in range & C(t) in range (C(0), C(t) acceptance 80-1000): 75.6%
- Percent of Subjects: Cavg in range & C(t) too high (C(0), C(t) acceptance 80-1000): 2.4%
- Percent of Subjects: Cavg in range & C(t) too low (C(0), C(t) acceptance 80-1000): 2.4%
- Percent of Subjects: Cavg too high & C(t) too high (C(0), C(t) acceptance 80-1000): 2.4%
- Percent of Subjects: Cavg too low & C(t) in range (C(0), C(t) acceptance 80-1000): 7.3%
- Percent of Subjects: C(t) in range (C(1), C(t) acceptance 130-1000): 85.4%
- Percent of Subjects: C(t) too high (C(1), C(t) acceptance 130-1000): 2.4%
- Percent of Subjects: C(t) too low (C(1), C(t) acceptance 130-1000): 12.2%
- Percent of Subjects: Cavg in range & C(t) in range (C(1), C(t) acceptance 130-1000): 78.0%
- Percent of Subjects: Cavg in range & C(t) too high (C(1), C(t) acceptance 130-1000): 0.0%
- Percent of Subjects: Cavg in range & C(t) too low (C(1), C(t) acceptance 130-1000): 2.4%
- Percent of Subjects: Cavg too high & C(t) too high (C(1), C(t) acceptance 130-1000): 2.4%
- Percent of Subjects: Cavg too low & C(t) in range (C(1), C(t) acceptance 130-1000): 2.4%
- Percent of Subjects: Cavg too low & C(t) too low (C(1), C(t) acceptance 130-1000): 9.8%
- Percent of Subjects: C(t) in range [1]: 90.2%
- Percent of Subjects: C(t) too high [1]: 0.0%
- Percent of Subjects: C(t) too low [1]: 9.8%
- Percent of Subjects: Cavg in range & C(t) in range [1]: 80.5%
- Percent of Subjects: Cavg in range & C(t) too high [1]: 0.0%
- Percent of Subjects: Cavg in range & C(t) too low [1]: 0.0%
- Percent of Subjects: Cavg too high & C(t) in range [1]: 7.3%
- Percent of Subjects: Cavg too high & C(t) too high [1]: 0.0%
- Percent of Subjects: Cavg too low & C(t) in range [1]: 2.4%
- Percent of Subjects: Cavg too low & C(t) too low [1]: 9.8%
- Percent of Subjects: C(t) in range (C(2), C(t) acceptance 150-1200): 90.2%
- Percent of Subjects: C(t) too high (C(2), C(t) acceptance 150-1200): 0.0%
- Percent of Subjects: C(t) too low (C(2), C(t) acceptance 150-1200): 9.8%
- Percent of Subjects: Cavg in range & C(t) in range (C(2), C(t) acceptance 150-1200): 80.5%
- Percent of Subjects: Cavg in range & C(t) too high (C(2), C(t) acceptance 150-1200): 0.0%
- Percent of Subjects: Cavg in range & C(t) too low (C(2), C(t) acceptance 150-1200): 0.0%
- Percent of Subjects: Cavg too high & C(t) in range (C(2), C(t) acceptance 150-1200): 7.3%
- Percent of Subjects: Cavg too high & C(t) too high (C(2), C(t) acceptance 150-1200): 0.0%
- Percent of Subjects: Cavg too low & C(t) in range (C(2), C(t) acceptance 150-1200): 2.4%
- Percent of Subjects: Cavg too low & C(t) too low (C(2), C(t) acceptance 150-1200): 9.8%
- Percent of subjects: Cavg in Range F & C(t) in Range F (total of too high and too low) (C(3), C(t) acceptance 190-1450): 7.3%
- Percent of Subjects: C(t) in range (C(3), C(t) acceptance 190-1500): 90.2%
- Percent of Subjects: C(t) too high (C(3), C(t) acceptance 190-1500): 0.0%
- Percent of Subjects: C(t) too low (C(3), C(t) acceptance 190-1500): 9.8%
- Percent of Subjects: Cavg in range & C(t) in range (C(3), C(t) acceptance 190-1500): 78.0%
- Percent of Subjects: Cavg in range & C(t) too high (C(3), C(t) acceptance 190-1500): 0.0%
- Percent of Subjects: Cavg in range & C(t) too low (C(3), C(t) acceptance 190-1500): 2.4%
- Percent of Subjects: Cavg too high & C(t) in range (C(3), C(t) acceptance 190-1500): 7.3%
- Percent of Subjects: Cavg too high & C(t) too high (C(3), C(t) acceptance 190-1500): 0.0%
- Percent of Subjects: Cavg too low & C(t) in range (C(3), C(t) acceptance 190-1500): 4.9%
- Percent of Subjects: Cavg too low & C(t) too low (C(3), C(t) acceptance 190-1500): 7.3%
- Percent of Subjects: C(t) in range (C(4), C(t) acceptance 250-1700): 82.9%
- Percent of Subjects: C(t) too high (C(4), C(t) acceptance 250-1700): 2.4%
- Percent of Subjects: C(t) too low (C(4), C(t) acceptance 250-1700): 14.6%
- Percent of Subjects: Cavg in range & C(t) in range (C(4), C(t) acceptance 250-1700): 75.6%
- Percent of Subjects: Cavg in range & C(t) too high (C(4), C(t) acceptance 250-1700): 0.0%
- Percent of Subjects: Cavg in range & C(t) too low (C(4), C(t) acceptance 250-1700): 4.9%
- Percent of Subjects: Cavg too high & C(t) in range (C(4), C(t) acceptance 250-1700): 4.9%
- Percent of Subjects: Cavg too high & C(t) too high (C(4), C(t) acceptance 250-1700): 2.4%
- Percent of Subjects: Cavg too low & C(t) in range (C(4), C(t) acceptance 250-1700): 2.4%
- Percent of Subjects: Cavg too low & C(t) too low (C(4), C(t) acceptance 250-1700): 9.8%
- Percent of subjects: Cavg in Range F & C(t) in Range F (total of too high and too low) (C(4), C(t) acceptance 250-1700): 12.2%
